Results reported in patent publication US9169252B2 (BRISTOL-MYERS SQUIBB COMPANY, priority 2014, dated 2015).
Like-named read-outs stand apart in the source and are kept apart here.

Experiments:
[1] = system: TLR2 induced IL-6 in peripheral blood mononuclear cells (PBMCs); experiment: PBMC TLR2 Induced IL-6 Assay; type: cell-based, human; settings: IL-6 by ELISA; for EC50: read-out: Cell EC50; for IC50: read-out: Cell IC50
In short: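 Lipoteichoic acid at 10 µg/ml served as TLR2 stimulus for 5 hours, following a 30-minute compound pretreatment at 37° C. Cells were Ficoll-isolated human PBMCs, 250000 cells/well, cultured in RPMI plus 10% heat-inactivated FCS.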

IRAK4 = IRAK4 (Homo sapiens (Human), UniProt Q9NWZ3); experiment: IRAK4 Inhibition Assay; type: biochemical; settings: ATP 500 μM, read-out: IRAK4 IC50
IRAK4, sequence (Q9NWZ3 whole entry, species assumed): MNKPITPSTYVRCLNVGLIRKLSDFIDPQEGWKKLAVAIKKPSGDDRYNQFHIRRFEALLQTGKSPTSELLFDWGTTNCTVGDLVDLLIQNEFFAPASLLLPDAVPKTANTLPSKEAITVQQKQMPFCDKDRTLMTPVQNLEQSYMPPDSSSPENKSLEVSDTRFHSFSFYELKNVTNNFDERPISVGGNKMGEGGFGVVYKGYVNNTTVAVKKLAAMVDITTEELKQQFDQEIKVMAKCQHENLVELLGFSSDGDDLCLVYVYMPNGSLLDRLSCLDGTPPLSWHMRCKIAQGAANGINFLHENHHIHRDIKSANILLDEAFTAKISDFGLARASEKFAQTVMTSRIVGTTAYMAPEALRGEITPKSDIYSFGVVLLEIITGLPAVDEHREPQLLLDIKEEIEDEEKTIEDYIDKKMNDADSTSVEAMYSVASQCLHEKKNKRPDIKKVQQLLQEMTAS
In short: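 Mobility-shift readout: fluorescent substrate and phosphoproduct resolved electrophoretically on Caliper LabChip 3000 after EDTA quench (35 mM). Enzyme reaction of IRAK4, substrates and test compound ran 60 min at room temperature.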

[2] = Homo sapiens, PBMC, PBMC TLR2 Induced IL-6 Assay, lipoteichoic acid stimulation
[3] = Homo sapiens, PBMC, human PBMCs, lipoteichoic acid stimulated
[4] = PBMC TLR2 Induced IL-6 Assay, lipoteichoic acid stimulation

Compound | EC50 [1, 2] | IC50 (IRAK4; IRAK4 Inhibition Assay) | IC50 [1, 2] | other results
CC(C)(O)[C@H](F)CNC(=O)c1cnc(-n2ccc3cc(C#N)cnc32)cc1NC12CCC(O)(CC1)C2 [Example 16, (R)-6-(5-cyano-1H-pyrrolo[2,3-b]pyridin-1-yl)-N-(2-fluoro-3-hydroxy-3-methylbutyl)-4-((4-hydroxybicyclo[2.2.1]heptan-1-yl)amino)nicotinamide] | 15 nM | 1.2 nM |  | 
CC(C)(O)[C@H](F)CNC(=O)c1cnc(-n2cnc3cc(C#N)cnc32)cc1NC1CCOCC1 [Example 345] |  | 7.4 nM | 180 nM | 
CC(C)Nc1cc(-n2ccc3cnc(NCC(C)(C)O)nc32)ncc1C(=O)NC[C@@H](F)C(C)(C)O [Example 187, (R)—N-(2-Fluoro-3-hydroxy-3-methylbutyl)-6-(2-((2-hydroxy-2-methylpropyl)amino)-7H-pyrrolo[2,3-d]pyrimidin-7-yl)-4-(isopropylamino)nicotinamide] | 86 nM | 1.9 nM |  | 
CC(C)Nc1cc(-n2ccc3cncnc32)ncc1C(=O)NCCC(C)(C)O [Example 44, N-(3-hydroxy-3-methylbutyl)-4-(isopropylamino)-6-(7H-pyrrolo[2,3-d]pyrimidin-7-yl)nicotinamide] | 98 nM | 4.2 nM |  | 
CC(C)(O)[C@H](F)CNC(=O)c1cnc(-n2ncc3cc(C#N)cnc32)cc1Nc1cnn(-c2ncc(F)cn2)c1 [Example 411] |  |  |  | EC50 [1, 3]: 51 nM; IC50 (IRAK4; IRAK4 0.6 nM): 1.6 nM
CC(C)Nc1cc(-n2ncc3cc(C#N)cnc32)ncc1C(=O)NCCC1(O)CCOC1 (centres unmarked) [Example 237] | 102 nM | 6.7 nM | 364 nM | 
CC(C)CCNC(=O)c1cnc(-n2ncc3cc(C#N)cnc32)cc1N[C@@H](C)CO [Example 320] |  | 5.6 nM | 261 nM | 
CC(C)Nc1cc(-n2ccc3cc(C#N)cnc32)ncc1C(=O)N[C@H]1CC[C@](O)(c2ccncc2)CC1 [Example 179, 6-(5-cyano-1H-pyrrolo[2,3-b]pyridin-1-yl)-N-((1 s,4s)-4-hydroxy-4-(pyridin-4-yl)cyclohexyl)-4-(isopropylamino)nicotinamide] | 135 nM | 2.8 nM |  | 
CC(O)CCNC(=O)c1cnc(-n2ncc3cc(C#N)cnc32)cc1NC(C)C (centres unmarked) [Example 239] |  | 5.3 nM |  | EC50 [1, 4]: 211 nM; IC50 [1, 4]: 775 nM
CC(C)Nc1cc(-n2cnc3cnc(N)nc32)ncc1C(=O)NC[C@@H](F)C(C)(C)F [Example 346] |  | 3.6 nM | 306 nM | 
CC(C)Nc1cc(-n2ncc3cc(C#N)cnc32)ncc1C(=O)Nc1ccc(CN2CCOCC2)cc1 [Example 226] | 248 nM | 6.8 nM |  | 
CC(C)Nc1cc(-n2ncc3cc(C#N)cnc32)ncc1C(=O)Nc1ccc(N2CCOCC2)cc1 [Example 222] | 305 nM | 5.1 nM |  | 
CC(C)Nc1cc(-n2ncc3cc(C#N)c(N)nc32)ncc1C(=O)NC1C=CCC1 (centres unmarked) [Example 327] |  | 11.1 nM | 181 nM | 
CC(C)(C)NC(=O)c1cnc(-n2ncc3cc(C#N)cnc32)cc1Nc1cnn(CC(F)F)c1 [Example 390] |  | 17 nM | 199 nM | 
CNC(=O)[C@H]1CC[C@H](NC(=O)c2cnc(-n3ncc4cc(C#N)c(N)nc43)cc2N[C@@H]2CCCC[C@H]2F)CC1 [Example 629] |  |  |  | IC50 [1, 3]: 135 nM; IC50 (IRAK4; IRAK4 0.6 nM): 3.3 nM
CC(C)Nc1cc(-n2ncc3cc(C#N)cnc32)ncc1C(=O)NC[C@@H](F)C(=O)N1CCOCC1 [Example 256] |  | 14.7 nM | 148 nM | 
CC(C)Nc1cc(-n2ncc3cc(Cl)cnc32)ncc1C(=O)NCCN1CCOCC1 [Example 154, 6-(5-chloro-1H-pyrazolo[3,4-b]pyridin-1-yl)-4-(isopropylamino)-N-(2-morpholinoethyl)nicotinamide] | 584 nM | 12 nM |  | 
CC(C)Nc1cc(-n2ccc3cc(C#N)cnc32)ncc1C(=O)NCCNS(C)(=O)=O [Example 63, 6-(5-cyano-1H-pyrrolo[2,3-b]pyridin-1-yl)-4-(isopropylamino)-N-(2-(methylsulfonamido)ethyl)nicotinamide] | 12 nM | 4.1 nM |  | 
